From publication PMC9961948, “Interaction of Amphipathic Peptide from Influenza Virus M1 Protein with Mitochondrial Cytochrome Oxidase” (International Journal of Molecular Sciences, 2023)

Biological target: T1, cytochrome c oxidase (CcO) purified from heart mitochondria (Bos taurus, UniProt P00396+P07471+P68530)
T1 construct: Cytochrome c oxidase was purified from the heart mitochondria of Bos taurus; from tissue; host or cells: bovine heart mitochondria
Assay: Cytochrome oxidase activity of solubilized mitochondrial CcO (oxygen uptake)
Format: biochemical
Details: solubilized bovine heart CcO 20 nM; oxygen uptake, Clark electrode, 25 °C; BM 50 mM Hepes/Tris pH 7.6, 50 mM KCl, 1 mM (0.05%) DM; 5 mM ascorbate, 0.1 mM TMPD, 10 μM cytochrome c; fit by Equation (1); read-out: Inhibition of CcO, Solubilized, Ki(app)

Work on Ac-STKLWEMLVELGNMDKAVKLWRKLSR-NH2 [A4] yielded a Ki of 0.0223 mM.
